Results reported in ChEMBL document CHEMBL5154654, “Design, synthesis and biological evaluation of 7-((7H-pyrrolo[2,3-d]pyrimidin-4-yl)oxy)-2,3-dihydro-1H-inden-1-one derivatives as potent FAK inhibitors for the treatment of ovarian cancer” (Eur J Med Chem, 2022).
Values after ≈ are worked out from the molar mass of the structure shown. Active and inactive are the calls of the source. The rule behind the calls is not given here.

Key:
[1] = molecular target: Serine/threonine-protein kinase 33 (Homo sapiens) (UniProt Q9BYT3); assay: Inhibition of STK33 (unknown origin) at 1 uM incubated for 40 mins in presence of Mg/ATP mix relative to control
[2] = AUClast in Sprague-Dawley rat at 20 mg/kg, po; format: ADME, organism-based; design: time 0 - last, dose 20 mg/kg, route po; conditions: in vivo
[3] = Toxicity in female BALB/c nude mouse xenografted with human PA-1 cells assessed as lung damage at 60 mg/kg, po administered once daily for 21 days; format: organism-based; conditions: in vivo, 504 h, time 21 day
[4] = Cmax in Sprague-Dawley rat at 20 mg/kg, po; format: ADME, organism-based; design: dose 20 mg/kg, route po; conditions: in vivo
[5] = system: PA-1; assay: Down-regulation of MMP-2 expression in human PA-1 cells at 2 uM measured after 0.5 to 6 hrs; format: functional, cell-based; conditions: time 0.5-6 hrs
[6] = molecular target: Dual specificity protein kinase CLK1 (Homo sapiens) (UniProt P49759); assay: Inhibition of CLK1 (unknown origin) at 1 uM incubated for 40 mins in presence of Mg/ATP mix relative to control
[7] = molecular target: T1, Focal adhesion kinase 1 (Homo sapiens, UniProt Q05397); conditions: PA-1, dose 10.0 nM
Description: Inhibition of FAK in human PA-1 cells assessed as suppression of FAK autophosphorylation at 10 nM and measured by Western blotting analysis

[8] = Toxicity in female BALB/c nude mouse xenografted with human PA-1 cells assessed as effect on body weight at 60 mg/kg, po administered once daily for 21 days; format: organism-based; conditions: in vivo, 504 h, time 21 day
[9] = system: PA-1; assay: Inhibition of invasion of human PA-1 cells at 2 uM measured after 24 hrs by Transwell assay; format: functional, cell-based
[10] = Toxicity in female BALB/c nude mouse xenografted with human PA-1 cells assessed as spleen damage at 60 mg/kg, po administered once daily for 21 days; format: organism-based; conditions: in vivo, 504 h, time 21 day
[11] = Metabolic stability in human liver microsomes assessed as intrinsic clearance incubated for 120 mins in presence of NADPH by LC-MS/MS analysis; format: ADME, Microsome; conditions: read-out: CLH
[12] = Metabolic stability in human liver microsomes assessed as parent compound remaining incubated for 120 mins in presence of NADPH by LC-MS/MS analysis; format: ADME, Microsome; conditions: read-out: Stability
[13] = system: PA-1; assay: Antitumor activity against human PA-1 cells xenografted in female BALB/c nude mouse assessed tumor growth inhibition at 60 mg/kg, po administered once daily for 21 days; format: functional; conditions: PA-1, 504 h, time 21 day, read-out: TGI
[14] = Aqueous solubility of compound; format: physicochemical; conditions: aqueous (not further specified)
[15] = molecular target: T1, Focal adhesion kinase 1; assay: Inhibition of FAK (unknown origin) using Fluorescein-Poly GAT as substrate incubated for 30 mins and measured after 60 mins by Lanthascreen assay
Target sequence in this assay (Q05397 whole entry): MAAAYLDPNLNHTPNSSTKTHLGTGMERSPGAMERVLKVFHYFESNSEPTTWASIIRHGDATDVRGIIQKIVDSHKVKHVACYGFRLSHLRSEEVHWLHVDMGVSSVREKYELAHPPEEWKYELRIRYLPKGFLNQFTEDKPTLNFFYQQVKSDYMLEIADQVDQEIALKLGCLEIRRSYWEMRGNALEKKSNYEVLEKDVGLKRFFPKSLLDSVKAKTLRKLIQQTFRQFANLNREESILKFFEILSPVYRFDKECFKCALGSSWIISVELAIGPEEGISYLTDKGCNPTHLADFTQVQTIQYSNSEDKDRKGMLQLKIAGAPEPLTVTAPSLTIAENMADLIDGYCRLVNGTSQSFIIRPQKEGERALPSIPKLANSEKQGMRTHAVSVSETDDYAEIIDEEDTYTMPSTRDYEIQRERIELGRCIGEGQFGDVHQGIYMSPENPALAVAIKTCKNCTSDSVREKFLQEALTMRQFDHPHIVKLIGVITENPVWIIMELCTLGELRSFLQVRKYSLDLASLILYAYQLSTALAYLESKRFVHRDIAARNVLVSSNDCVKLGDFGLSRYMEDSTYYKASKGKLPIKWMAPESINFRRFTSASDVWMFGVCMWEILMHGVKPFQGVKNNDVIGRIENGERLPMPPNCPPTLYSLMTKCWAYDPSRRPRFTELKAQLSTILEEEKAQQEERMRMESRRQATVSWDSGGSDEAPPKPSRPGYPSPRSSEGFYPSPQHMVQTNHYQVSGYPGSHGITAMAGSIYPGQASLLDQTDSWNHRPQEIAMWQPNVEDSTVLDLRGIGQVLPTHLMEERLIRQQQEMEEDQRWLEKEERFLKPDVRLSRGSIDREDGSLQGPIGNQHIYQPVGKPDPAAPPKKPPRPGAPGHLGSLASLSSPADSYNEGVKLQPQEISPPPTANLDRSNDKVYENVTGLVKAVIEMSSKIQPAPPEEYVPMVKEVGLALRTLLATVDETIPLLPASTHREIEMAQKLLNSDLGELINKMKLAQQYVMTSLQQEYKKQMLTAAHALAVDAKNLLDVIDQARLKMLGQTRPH

[16] = Half-life in Sprague-Dawley rat at 20 mg/kg, po; format: ADME, organism-based; conditions: in vivo
[17] = system: ES-2; assay: Antimetastatic activity against human ES2 cells xenografted in mouse assessed as decrease in the number of peritoneal nodules at 60 mg/kg, po administered daily for 12 days; format: functional, organism-based; conditions: time 12.0 day
[18] = system: PA-1; assay: Inhibition of migration of human PA-1 cells at 2 uM measured after 24 hrs by Transwell assay; format: functional, cell-based
[19] = Tmax in Sprague-Dawley rat at 20 mg/kg, po; format: ADME, organism-based; conditions: in vivo
[20] = Metabolic stability in human liver microsomes assessed as half-life incubated for 120 mins in presence of NADPH by LC-MS/MS analysis; format: ADME, Microsome
[21] = molecular target: Tyrosine-protein kinase Fes/Fps (Homo sapiens) (UniProt P07332); assay: Inhibition of Fes (unknown origin) at 1 uM incubated for 40 mins in presence of Mg/ATP mix relative to control
[22] = molecular target: Leucine-rich repeat serine/threonine-protein kinase 2 (Homo sapiens) (UniProt Q5S007); assay: Inhibition of LRRK2 (unknown origin) at 1 uM incubated for 40 mins in presence of Mg/ATP mix relative to control
[23] = Toxicity in female BALB/c nude mouse xenografted with human PA-1 cells assessed as kidney damage at 60 mg/kg, po administered once daily for 21 days; format: organism-based; conditions: in vivo, 504 h, time 21 day
[24] = molecular target: ALK tyrosine kinase receptor (Homo sapiens) (UniProt Q9UM73); assay: Inhibition of ALK (unknown origin) at 1 uM incubated for 40 mins in presence of Mg/ATP mix relative to control
[25] = system: PA-1; assay: Down-regulation of MMP-9 expression in human PA-1 cells at 2 uM measured after 0.5 to 6 hrs; format: functional, cell-based; conditions: time 0.5-6 hrs
[26] = Toxicity in female BALB/c nude mouse xenografted with human PA-1 cells assessed as heart damage at 60 mg/kg, po administered once daily for 21 days; format: organism-based; conditions: in vivo, 504 h, time 21 day
[27] = AUC (total) in Sprague-Dawley rat at 20 mg/kg, po; format: ADME, organism-based; design: dose 20 mg/kg, route po; conditions: in vivo
[28] = molecular target: Dual specificity protein kinase CLK4 (Homo sapiens) (UniProt Q9HAZ1); assay: Inhibition of CLK4 (unknown origin) at 1 uM incubated for 40 mins in presence of Mg/ATP mix relative to control
[29] = Toxicity in female BALB/c nude mouse xenografted with human PA-1 cells assessed as liver damage at 60 mg/kg, po administered once daily for 21 days; format: organism-based; conditions: in vivo, 504 h, time 21 day

Chain of Dual specificity protein kinase CLK1 (Homo sapiens) (P49759 whole entry, looked up): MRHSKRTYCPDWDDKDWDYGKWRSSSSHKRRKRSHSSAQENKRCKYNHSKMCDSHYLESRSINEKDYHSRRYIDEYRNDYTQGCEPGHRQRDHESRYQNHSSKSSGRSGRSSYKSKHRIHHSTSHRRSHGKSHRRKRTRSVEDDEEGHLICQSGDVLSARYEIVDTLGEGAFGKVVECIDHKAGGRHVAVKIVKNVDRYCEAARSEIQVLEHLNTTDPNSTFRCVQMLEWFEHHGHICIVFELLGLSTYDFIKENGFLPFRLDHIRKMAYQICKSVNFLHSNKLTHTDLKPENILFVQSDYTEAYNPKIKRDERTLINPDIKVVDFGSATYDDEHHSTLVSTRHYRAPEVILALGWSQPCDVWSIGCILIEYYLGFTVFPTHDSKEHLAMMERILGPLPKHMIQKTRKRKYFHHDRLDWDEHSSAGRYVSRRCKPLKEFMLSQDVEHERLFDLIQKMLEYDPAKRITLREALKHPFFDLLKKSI
Chain of Dual specificity protein kinase CLK4 (Homo sapiens) (Q9HAZ1 whole entry, looked up): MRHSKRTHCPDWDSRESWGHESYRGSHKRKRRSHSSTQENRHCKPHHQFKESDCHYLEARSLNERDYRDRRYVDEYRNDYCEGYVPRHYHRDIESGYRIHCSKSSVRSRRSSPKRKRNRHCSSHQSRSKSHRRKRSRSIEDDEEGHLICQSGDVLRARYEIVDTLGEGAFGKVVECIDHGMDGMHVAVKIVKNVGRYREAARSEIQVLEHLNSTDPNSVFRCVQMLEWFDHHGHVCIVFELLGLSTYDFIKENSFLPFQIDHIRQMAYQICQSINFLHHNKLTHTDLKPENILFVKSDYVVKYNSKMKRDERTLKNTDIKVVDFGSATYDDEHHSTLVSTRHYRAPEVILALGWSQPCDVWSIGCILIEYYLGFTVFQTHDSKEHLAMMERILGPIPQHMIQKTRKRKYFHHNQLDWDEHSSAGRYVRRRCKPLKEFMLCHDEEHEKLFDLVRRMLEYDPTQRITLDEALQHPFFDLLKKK
Chain of Serine/threonine-protein kinase 33 (Homo sapiens) (Q9BYT3 whole entry, looked up): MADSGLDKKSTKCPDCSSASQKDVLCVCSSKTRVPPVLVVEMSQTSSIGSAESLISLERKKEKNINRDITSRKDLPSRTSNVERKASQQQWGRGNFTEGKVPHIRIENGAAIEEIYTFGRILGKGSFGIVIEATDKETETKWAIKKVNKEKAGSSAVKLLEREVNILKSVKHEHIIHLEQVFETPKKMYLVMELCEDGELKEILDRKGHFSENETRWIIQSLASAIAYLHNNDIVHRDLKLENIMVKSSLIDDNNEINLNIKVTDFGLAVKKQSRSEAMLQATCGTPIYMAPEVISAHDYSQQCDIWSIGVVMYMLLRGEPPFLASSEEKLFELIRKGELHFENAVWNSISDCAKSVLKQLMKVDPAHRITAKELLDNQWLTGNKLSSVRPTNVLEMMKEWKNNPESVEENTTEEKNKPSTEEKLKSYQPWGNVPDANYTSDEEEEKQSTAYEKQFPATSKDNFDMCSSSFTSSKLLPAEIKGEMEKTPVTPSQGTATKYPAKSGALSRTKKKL
Chain of Tyrosine-protein kinase Fes/Fps (Homo sapiens) (P07332 whole entry): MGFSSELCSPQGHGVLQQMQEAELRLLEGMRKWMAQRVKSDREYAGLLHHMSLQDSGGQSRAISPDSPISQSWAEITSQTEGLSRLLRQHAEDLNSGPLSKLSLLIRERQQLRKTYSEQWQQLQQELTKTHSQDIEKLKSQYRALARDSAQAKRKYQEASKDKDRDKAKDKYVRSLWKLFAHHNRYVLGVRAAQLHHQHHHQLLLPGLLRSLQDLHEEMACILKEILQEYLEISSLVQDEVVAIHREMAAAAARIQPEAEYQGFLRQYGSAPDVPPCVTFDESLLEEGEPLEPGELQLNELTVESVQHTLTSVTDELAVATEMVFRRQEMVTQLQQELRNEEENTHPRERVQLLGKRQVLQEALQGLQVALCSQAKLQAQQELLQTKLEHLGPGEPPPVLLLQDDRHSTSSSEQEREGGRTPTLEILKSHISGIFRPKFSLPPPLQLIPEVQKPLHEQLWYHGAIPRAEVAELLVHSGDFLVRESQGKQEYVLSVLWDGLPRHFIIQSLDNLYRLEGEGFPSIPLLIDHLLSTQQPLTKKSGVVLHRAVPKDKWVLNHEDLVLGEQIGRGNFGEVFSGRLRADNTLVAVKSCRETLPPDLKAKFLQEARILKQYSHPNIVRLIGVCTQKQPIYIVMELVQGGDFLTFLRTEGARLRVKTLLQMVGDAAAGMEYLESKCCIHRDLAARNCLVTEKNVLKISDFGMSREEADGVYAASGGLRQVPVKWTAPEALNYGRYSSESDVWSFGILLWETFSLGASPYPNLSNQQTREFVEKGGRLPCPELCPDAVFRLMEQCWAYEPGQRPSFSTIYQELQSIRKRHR
Chain of ALK tyrosine kinase receptor (Homo sapiens) (Q9UM73 19-1620 limits assumed): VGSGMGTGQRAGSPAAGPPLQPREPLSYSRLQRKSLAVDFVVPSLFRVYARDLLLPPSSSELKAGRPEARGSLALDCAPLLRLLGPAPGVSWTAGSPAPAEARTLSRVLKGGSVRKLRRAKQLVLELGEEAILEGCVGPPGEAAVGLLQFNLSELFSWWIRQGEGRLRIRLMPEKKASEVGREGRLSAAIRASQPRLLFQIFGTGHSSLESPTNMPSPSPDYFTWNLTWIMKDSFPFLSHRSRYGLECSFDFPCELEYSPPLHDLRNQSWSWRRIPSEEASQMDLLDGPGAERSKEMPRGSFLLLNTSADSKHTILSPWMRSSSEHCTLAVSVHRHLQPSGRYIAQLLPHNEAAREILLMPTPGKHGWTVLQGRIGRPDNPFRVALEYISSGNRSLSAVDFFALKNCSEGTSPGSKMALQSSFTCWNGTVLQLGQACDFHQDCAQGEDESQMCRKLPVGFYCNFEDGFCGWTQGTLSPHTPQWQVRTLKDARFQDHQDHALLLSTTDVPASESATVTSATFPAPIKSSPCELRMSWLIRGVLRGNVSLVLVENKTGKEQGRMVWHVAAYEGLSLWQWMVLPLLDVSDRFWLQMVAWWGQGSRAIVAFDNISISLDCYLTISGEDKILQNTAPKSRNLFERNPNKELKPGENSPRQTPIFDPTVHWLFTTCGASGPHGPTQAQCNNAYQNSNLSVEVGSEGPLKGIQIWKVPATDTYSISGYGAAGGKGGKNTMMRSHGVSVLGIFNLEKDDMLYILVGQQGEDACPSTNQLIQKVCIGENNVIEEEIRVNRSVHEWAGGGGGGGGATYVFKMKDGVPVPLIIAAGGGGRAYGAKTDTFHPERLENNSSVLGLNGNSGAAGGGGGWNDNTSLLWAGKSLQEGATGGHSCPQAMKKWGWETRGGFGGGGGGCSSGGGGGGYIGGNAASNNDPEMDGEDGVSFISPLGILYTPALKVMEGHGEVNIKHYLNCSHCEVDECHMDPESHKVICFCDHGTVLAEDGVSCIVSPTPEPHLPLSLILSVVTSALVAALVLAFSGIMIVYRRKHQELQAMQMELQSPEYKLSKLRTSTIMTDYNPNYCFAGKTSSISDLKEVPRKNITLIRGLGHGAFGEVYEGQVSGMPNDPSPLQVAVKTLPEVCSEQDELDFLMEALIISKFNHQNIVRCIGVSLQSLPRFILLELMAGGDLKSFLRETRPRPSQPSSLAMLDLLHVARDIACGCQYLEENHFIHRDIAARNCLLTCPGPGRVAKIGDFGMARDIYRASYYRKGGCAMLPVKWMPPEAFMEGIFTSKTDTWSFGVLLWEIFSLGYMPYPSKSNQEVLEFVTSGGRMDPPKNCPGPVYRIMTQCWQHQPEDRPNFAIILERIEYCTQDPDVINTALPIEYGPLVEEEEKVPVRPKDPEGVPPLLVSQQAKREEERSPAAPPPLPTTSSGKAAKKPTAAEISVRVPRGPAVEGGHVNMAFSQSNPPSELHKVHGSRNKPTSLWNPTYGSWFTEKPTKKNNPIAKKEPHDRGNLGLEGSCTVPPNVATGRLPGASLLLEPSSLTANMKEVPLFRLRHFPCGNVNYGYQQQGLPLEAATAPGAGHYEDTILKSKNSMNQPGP

In the case of `COc1cc(C(=O)NC2CCNCC2)ccc1Nc1nc(Oc2cccc3c2C(=O)CC3)c2cc[nH]c2n1`, the inhibition [1] is reported as 92%, the AUC(0-t) [2] is reported as 59.6 ng·h/mL and the Activity [3] is reported as “Non-Toxic”. For the same compound, the Cmax [4] was 21.7 ng/mL, the Activity [5] was “Active” and the inhibition [6] was 92%. The inhibition [7] was “Active”, the Activity [8] was “Non-Toxic” and the inhibition [9] was “Active”. The Activity [10] was “Non-Toxic”, the CLint scaled [11] was 7.7 mL/min/kg and the remaining at 2 h [12] was 48.6%. The inhibition in vivo at 60 mg/kg [13] was 72.5%, the solubility [14] was 456 µg/mL (≈ 890 µM) and the IC50 [15] was 1.89 nM. The half-life [16] was 4.08 h, the Activity [17] was “Active” and the inhibition [18] was “Active”. For the same compound, the Tmax [19] was 0.28 h, the half-life [20] was 1.88 h and the inhibition [21] was 96%. For the same compound, the inhibition [22] was 100%, the Activity [23] was “Non-Toxic” and the inhibition [24] was 87%. The Activity [25] was “Active”, the Activity [26] was “Non-Toxic” and the AUC [27] was 78.8 ng·h/mL. For the same compound, the inhibition [28] was 97% and the Activity [29] was “Non-Toxic”.
